Measurements reported in US20060167109A1, “Methods of reducing rhinovirus contagion and related compositions” (priority 2002, published 2006).

What was measured:
[1] = Cell toxicity (MTT) assay of cell growth; conditions: human, HeLa (WIS) cells; methyltetrazolium dye-based assay of cell growth
Experimental: To properly evaluate antiviral activity in cell culture assays, the 50% cytotoxic concentration (CC50) of the test compound was first determined so that any inhibitory effects on virus replication could be distinguished from effects due to compound cytotoxicity. The CC50 of pleconaril was determined using a methyltetrazolium dye-based assay of cell growth (Pevear, et al., 1999, Antimicrob. Agents Chemother., 43, 2109-2115).
Pleconaril was solubilized in dimethyl sulfoxide (DMSO). After dilution to the desired drug concentration, the final DMSO concentration in assays was 0.25%.

HRV3 = test: Time of drug addition; format: cell-based, human rhinovirus
Experimental: To determine the stage in the virus replication cycle that is affected by pleconaril, time of drug addition studies were conducted. Pleconaril was added to cells either during viral attachment or at various times thereafter. Viral replication was allowed to proceed for a single cycle of growth (10-12 hours), at which time the cells were lysed by a freeze-thaw cycle, residual pleconaril was removed by chloroform extraction, and virus yield was determined in the cytopathic effect assay. A 2 μM concentration of pleconaril inhibited greater than 90% of the yield of HRV3 from a single cycle of growth if present during the virus attachment period.
Twenty-four well plates (Costar 3524) of HeLa cells were infected in duplicate with 250 μL of HRV3 in M199 medium with 5% FBS at a multiplicity of infection (MOI) of approximately 1 PFU/cell for 1 hour at room temperature. During a treatment (the “−1 h” timepoint), one set of duplicate wells for each virus received 2 μM pleconaril, while the remaining wells received DMSO (0.5% final concentration). After attachment, the cells were washed twice with 1 mL of DPBS, and then overlaid with fresh medium. Pleconaril (2 μM final concentration) was added to the wells at the indicated times. The plates were incubated at 33° C. (HRV3) for 10 hours, at which time they were frozen at −80° C. […]

HRV serotype 98 = test: HRV cytopathic effect assay; format: cell-based; conditions: Human rhinovirus sp.
Experimental: (§1) For sensitivity testing to pleconaril, the appropriate cells were seeded into 96 well plates at a concentration of 4×10^4/well. After an overnight incubation at 37° C., the medium was removed and the cells were infected with 150 μL of a dilution of virus previously titrated to give ≧85% lysis of the monolayer after 3 days of incubation. The plates were incubated for 1 hour at the appropriate temperature and then overlaid with 50 μL of medium containing serial 2-fold dilutions of pleconaril in 2% DMSO. The final DMSO concentration in the assay was always 0.5%. No virus and no pleconaril controls were included on each plate. All drug concentrations were run in quadruplicate. The plates were then incubated for 3 days at the appropriate temperature followed by processing as described above.

HRV serotype 75 = test: HRV cytopathic effect assay; format: cell-based; conditions: Human rhinovirus sp.
Experimental: as §1

HRV serotype 8 = test: HRV cytopathic effect assay; format: cell-based; conditions: Human rhinovirus sp.
Experimental: as §1

HRV serotype 67 = test: HRV cytopathic effect assay; format: cell-based; conditions: Human rhinovirus sp.
Experimental: as §1

HRV serotype 68 = test: HRV cytopathic effect assay; format: cell-based; conditions: Human rhinovirus sp.
Experimental: as §1

HRV serotype 33 = test: HRV cytopathic effect assay; format: cell-based; conditions: Human rhinovirus sp.
Experimental: as §1

HRV serotype 74 = test: HRV cytopathic effect assay; format: cell-based; conditions: Human rhinovirus sp.
Experimental: as §1

HRV serotype 50 = test: HRV cytopathic effect assay; format: cell-based; conditions: Human rhinovirus sp.
Experimental: as §1

HRV serotype 10 = test: HRV cytopathic effect assay; format: cell-based; conditions: Human rhinovirus sp.
Experimental: as §1

HRV serotype 77 = test: HRV cytopathic effect assay; format: cell-based; conditions: Human rhinovirus sp.
Experimental: as §1

HRV serotype 82 = test: HRV cytopathic effect assay; format: cell-based; conditions: Human rhinovirus sp.
Experimental: as §1

HRV serotype 34 = test: HRV cytopathic effect assay; format: cell-based; conditions: Human rhinovirus sp.
Experimental: as §1

HRV serotype 40 = test: HRV cytopathic effect assay; format: cell-based; conditions: Human rhinovirus sp.
Experimental: as §1

HRV serotype 25 = test: HRV cytopathic effect assay; format: cell-based; conditions: Human rhinovirus sp.
Experimental: as §1

HRV-3 = test: Attachment inhibition, 35S-radiolabeled virus; format: cell-based, human rhinovirus; conditions: HRV-3, ICAM-1 receptor, FIG. 5
Experimental: (§2) The ability of pleconaril to affect the attachment to cells of several HRV serotypes was examined. ^35S-radiolabeled virus was incubated with susceptible cells for 1 hour in the presence of various concentrations of pleconaril. Cell-associated virus was quantified by direct scintillation counting of cell lysates after removal of unbound virus.
(§3) ^35S-radiolabeled virus was preincubated with various concentrations of pleconaril or 0.5% DMSO alone for 1 hour at room temperature. Cells in 6 well plates were inoculated with 20,000 cpm of ^35S-radiolabeled virus/well in 0.5 mL of M199 medium with 5% FBS. Attachment was allowed to proceed for 1 hour at 33° C., at which time the inoculum was removed and the cells washed with 2 mL of medium. The cells were then lysed by a 15 minute incubation on ice in the presence of 250 μL/well of a solution containing detergent 1% Nonident P40 (NP40) and 20 mM chelator, ethylene diamine tetraacetic acid (EDTA) in water. Cell-associated radioactivity was quantified by liquid scintillation spectroscopy in a Wallac Model 1409 Liquid Scintillation Counter (Wallac Oy, Turku, Finland).

HRV-89 = test: Attachment inhibition, 35S-radiolabeled virus; format: cell-based, human rhinovirus; conditions: HRV-89, ICAM-1 receptor, FIG. 5
Experimental: as §2, §3

HRV-50 = test: Attachment inhibition, 35S-radiolabeled virus; format: cell-based, human rhinovirus; conditions: HRV-50, ICAM-1 receptor, FIG. 5
Experimental: as §2, §3

HRV-14 = test: Attachment inhibition, 35S-radiolabeled virus; format: cell-based, human rhinovirus; conditions: HRV-14, ICAM-1 receptor, FIG. 5
Experimental: as §2, §3

HRV-1A = test: Attachment inhibition, 35S-radiolabeled virus; format: cell-based, human rhinovirus; conditions: LDL receptor, HeLa cells
Experimental: as §2, §3

HRV-2 = test: Attachment inhibition, 35S-radiolabeled virus; format: cell-based, human rhinovirus; conditions: HRV-2, LDL receptor, HeLa cells
Experimental: as §2, §3

Compound: Cc1cc(CCCOc2c(C)cc(-c3noc(C(F)(F)F)n3)cc2C)on1 [pleconaril, 3-[3,5-dimethyl-4-[3-(3-methyl-5-isoxazolyl)propoxy]phenyl]-5-(trifluoromethyl)-1,2,4-oxadiazole]
- CC50 [1]: 12.5 to 25 µM
- reduction in virus yield (HRV3; 2 μM, drug addition after attachment (0 hour timepoint)): < 1 log10
- inhibition at 2 µM (HRV3; Human rhinovirus sp., HRV3, present during the virus attachment period, read-out: inhibition of the yield of HRV3 from a single cycle of growth): > 90%
- IC50 (HRV serotype 98): 1.8 ± 1.62 µM
- IC50 (HRV serotype 75): 0.11 ± 0.06 µM
- IC50 (HRV serotype 8): 3.42 ± 2.7 µM
- IC50 (HRV serotype 67): 0.25 ± 0.11 µM
- IC50 (HRV serotype 68): 0.03 ± 0.02 µM
- IC50 (HRV serotype 33): 0.16 ± 0.03 µM
- IC50 (HRV serotype 74): 0.03 µM
- IC50 (HRV serotype 50; HRV50, Table 2, mean of at least two independent determinations): 0.35 ± 0.07 µM
- IC50 (HRV serotype 50; serotype 50): 0.35 ± 0.07 µM
- IC50 (HRV serotype 10): 0.13 ± 0.05 µM
- IC50 (HRV serotype 77): 0.55 ± 0.29 µM
- IC50 (HRV serotype 82): 0.22 ± 0.19 µM
- IC50 (HRV serotype 34): 0.09 ± 0.02 µM
- IC50 (HRV serotype 40): 0.07 ± 0.03 µM
- IC50 (HRV serotype 25): 0.1 ± 0.01 µM
- attachment of virus to cells (HRV-3): inhibited
- attachment of virus to cells (HRV-89): inhibited
- attachment of virus to cells (HRV-50): inhibited
- attachment of virus to cells (HRV-14): inhibited
- attachment of virus to cells (HRV-1A): able to bind to HeLa cells normally
- attachment of virus to cells (HRV-2): able to bind to HeLa cells normally
